Test system: mu opiate receptor (MOR)
Assay: MOR agonist activity using [35S]GTPγS binding assay in striatal membranes
Format: biochemical
Conditions: 0.1 μM compound
In short: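 Striatal membranes (200 μg) were preincubated 5 min at 30 °C in HEPES pH 7.5 with 100 mM NaCl, 1 mM MgCl2 and 0.5 nM [35S]GTPγS, then 5 min more with 0.1–10 μM compound. Gαo was immunoprecipitated and bound radioactivity counted by scintillation.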

| Compound | MOR agonist activity ([35S]GTPγS binding), FLNA-Binding Compound as Agonist 0.1 μM [%] |
| --- | --- |
| CC1CCC(C(C)C)C(OCC(O)CN2CC(C)OC(C)C2)C1 (stereo not drawn) [Compound A3333] | 170.7 |
| Cc1cccc(OCC(O)CN2CC(C)OC(C)C2)c1 (stereo not drawn) [Compound A0030] | 133.4 |
| OC(COc1cccc(C(F)(F)F)c1)CN1CCc2ccccc2C1 (stereo not drawn) [Compound A0054] | 74.9 |
| CC1CCC(C(C)C)C(OCC(O)CN2CCCCC2=O)C1 (stereo not drawn) [Compound A0036] | 144.1 |
| CC1CN(CC(O)COc2ccc(Br)c(Cl)c2)CC(C)O1 (stereo not drawn) [Compound A0045] | 143.9 |
| CC1CCC(C(C)C)C(OCC(O)CN2CCN(CCc3ccccc3)CC2)C1 (stereo not drawn) [Compound A0020] | 168.6 |

Same assay, conditions: 0.1 μM compound relative to DAMGO

| Compound | % DAMGO (0.1 μM) [%] |
| --- | --- |
| CC1CCC(C(C)C)C(OCC(O)CN2CC(C)OC(C)C2)C1 (stereo not drawn) [Compound A3333] | 88.9 |
| Cc1cccc(OCC(O)CN2CC(C)OC(C)C2)c1 (stereo not drawn) [Compound A0030] | 75.5 |
| OC(COc1cccc(C(F)(F)F)c1)CN1CCc2ccccc2C1 (stereo not drawn) [Compound A0054] | 44.4 |
| CC1CCC(C(C)C)C(OCC(O)CN2CCCCC2=O)C1 (stereo not drawn) [Compound A0036] | 73.4 |
| CC1CN(CC(O)COc2ccc(Br)c(Cl)c2)CC(C)O1 (stereo not drawn) [Compound A0045] | 73.3 |
| CC1CCC(C(C)C)C(OCC(O)CN2CCN(CCc3ccccc3)CC2)C1 (stereo not drawn) [Compound A0020] | 100.9 |

Same assay, conditions: 1 μM compound

| Compound | MOR agonist activity ([35S]GTPγS binding), FLNA-Binding Compound as Agonist 1 μM [%] |
| --- | --- |
| CC1CCC(C(C)C)C(OCC(O)CN2CC(C)OC(C)C2)C1 (stereo not drawn) [Compound A3333] | 328.3 |
| Cc1cccc(OCC(O)CN2CC(C)OC(C)C2)c1 (stereo not drawn) [Compound A0030] | 287.8 |
| OC(COc1cccc(C(F)(F)F)c1)CN1CCc2ccccc2C1 (stereo not drawn) [Compound A0054] | 159.2 |
| CC1CCC(C(C)C)C(OCC(O)CN2CCCCC2=O)C1 (stereo not drawn) [Compound A0036] | 167.5 |
| CC1CN(CC(O)COc2ccc(Br)c(Cl)c2)CC(C)O1 (stereo not drawn) [Compound A0045] | 274.2 |
| CC1CCC(C(C)C)C(OCC(O)CN2CCN(CCc3ccccc3)CC2)C1 (stereo not drawn) [Compound A0020] | 217.4 |

Same assay, conditions: 1 μM compound + 1 μM β-funaltrexamine

| Compound | MOR agonist activity ([35S]GTPγS binding), FLNA-Binding Compound as Agonist 1 μM + BFNA [%] |
| --- | --- |
| CC1CCC(C(C)C)C(OCC(O)CN2CC(C)OC(C)C2)C1 (stereo not drawn) [Compound A3333] | 65.9 |
| Cc1cccc(OCC(O)CN2CC(C)OC(C)C2)c1 (stereo not drawn) [Compound A0030] | 165.2 |
| OC(COc1cccc(C(F)(F)F)c1)CN1CCc2ccccc2C1 (stereo not drawn) [Compound A0054] | 114.1 |
| CC1CCC(C(C)C)C(OCC(O)CN2CCCCC2=O)C1 (stereo not drawn) [Compound A0036] | 63.2 |
| CC1CN(CC(O)COc2ccc(Br)c(Cl)c2)CC(C)O1 (stereo not drawn) [Compound A0045] | 99.2 |
| CC1CCC(C(C)C)C(OCC(O)CN2CCN(CCc3ccccc3)CC2)C1 (stereo not drawn) [Compound A0020] | 67.4 |

Same assay, conditions: 1 μM compound + BFNA relative to DAMGO + BFNA

| Compound | % DAMGO + BFNA [%] |
| --- | --- |
| CC1CCC(C(C)C)C(OCC(O)CN2CC(C)OC(C)C2)C1 (stereo not drawn) [Compound A3333] | 136.7 |
| Cc1cccc(OCC(O)CN2CC(C)OC(C)C2)c1 (stereo not drawn) [Compound A0030] | 628.1 |
| OC(COc1cccc(C(F)(F)F)c1)CN1CCc2ccccc2C1 (stereo not drawn) [Compound A0054] | 348.9 |
| CC1CCC(C(C)C)C(OCC(O)CN2CCCCC2=O)C1 (stereo not drawn) [Compound A0036] | 85.5 |
| CC1CN(CC(O)COc2ccc(Br)c(Cl)c2)CC(C)O1 (stereo not drawn) [Compound A0045] | 134.2 |
| CC1CCC(C(C)C)C(OCC(O)CN2CCN(CCc3ccccc3)CC2)C1 (stereo not drawn) [Compound A0020] | 194.2 |

Same assay, conditions: 1 μM compound relative to DAMGO

| Compound | % DAMGO (1 μM) [%] |
| --- | --- |
| CC1CCC(C(C)C)C(OCC(O)CN2CC(C)OC(C)C2)C1 (stereo not drawn) [Compound A3333] | 101.0 |
| Cc1cccc(OCC(O)CN2CC(C)OC(C)C2)c1 (stereo not drawn) [Compound A0030] | 113.2 |
| OC(COc1cccc(C(F)(F)F)c1)CN1CCc2ccccc2C1 (stereo not drawn) [Compound A0054] | 63.9 |
| CC1CCC(C(C)C)C(OCC(O)CN2CCCCC2=O)C1 (stereo not drawn) [Compound A0036] | 60.7 |
| CC1CN(CC(O)COc2ccc(Br)c(Cl)c2)CC(C)O1 (stereo not drawn) [Compound A0045] | 99.3 |
| CC1CCC(C(C)C)C(OCC(O)CN2CCN(CCc3ccccc3)CC2)C1 (stereo not drawn) [Compound A0020] | 88.7 |

Same assay, conditions: Series B; 0.1 μM compound, relative to DAMGO

| Compound | % DAMGO (0.1 μM) [%] |
| --- | --- |
| COc1c2c(cc3c1C(CC(O)CCc1ccccc1)N(C)CC3)OCO2 (stereo not drawn) [Compound B0051] | 68.4 |

Same assay, conditions: Series B; 0.1 μM compound; [35S]GTPγS binding to Gαo, striatal membranes

| Compound | MOR agonist activity, percent [35S]GTPγS binding at the stated compound concentration [%] |
| --- | --- |
| COc1c2c(cc3c1C(CC(O)CCc1ccccc1)N(C)CC3)OCO2 (stereo not drawn) [Compound B0051] | 115.6 |

Same assay, conditions: Series B; 1 μM compound + 1 μM β-FNA

| Compound | MOR agonist activity, percent [35S]GTPγS binding at the stated compound concentration [%] |
| --- | --- |
| COc1c2c(cc3c1C(CC(O)CCc1ccccc1)N(C)CC3)OCO2 (stereo not drawn) [Compound B0051] | 43.8 |

Same assay, conditions: Series B; 1 μM compound + β-FNA, relative to DAMGO + BFNA

| Compound | % DAMGO + BFNA [%] |
| --- | --- |
| COc1c2c(cc3c1C(CC(O)CCc1ccccc1)N(C)CC3)OCO2 (stereo not drawn) [Compound B0051] | 263.9 |

Same assay, conditions: Series B; 1 μM compound, relative to DAMGO

| Compound | % DAMGO (1 μM) [%] |
| --- | --- |
| COc1c2c(cc3c1C(CC(O)CCc1ccccc1)N(C)CC3)OCO2 (stereo not drawn) [Compound B0051] | 76.7 |

Same assay, conditions: Series B; 1 μM compound; [35S]GTPγS binding to Gαo, striatal membranes

| Compound | MOR agonist activity, percent [35S]GTPγS binding at the stated compound concentration [%] |
| --- | --- |
| COc1c2c(cc3c1C(CC(O)CCc1ccccc1)N(C)CC3)OCO2 (stereo not drawn) [Compound B0051] | 167.9 |

Biological target: FLNA pentapeptide of SEQ ID NO: 1 (Bn-VAKGL) (Homo sapiens, UniProt P21333)
Assay: FITC-NLX-based FLNA screening assay (inhibition of FITC-naloxone binding to Bn-VAKGL on streptavidin plates)
Conditions: FLNA-binding compound 0.01 μM; 10 nM FITC-NLX

| Compound | Percent Binding Inhibition [%] |
| --- | --- |
| CC1CCC(C(C)C)C(OCC(O)CN2CC(C)OC(C)C2)C1 (stereo not drawn) [Compound A3333] | 40.4 |

Same assay, conditions: FLNA-binding compound 0.01 μM; 10 nM FITC-NLX; read-out: Percent Binding Inhibition

| Compound | inhibition at 0.01 µM [%] |
| --- | --- |
| Cc1cccc(OCC(O)CN2CC(C)OC(C)C2)c1 (stereo not drawn) [Compound A0030] | 35.6 |
| OC(COc1cccc(C(F)(F)F)c1)CN1CCc2ccccc2C1 (stereo not drawn) [Compound A0054] | 28.7 |
| COc1c2c(cc3c1C(CC(O)CCc1ccccc1)N(C)CC3)OCO2 (stereo not drawn) [Compound B0051] | 29.9 |
| CC1CCC(C(C)C)C(OCC(O)CN2CCCCC2=O)C1 (stereo not drawn) [Compound A0036] | 45.6 |
| CC1CN(CC(O)COc2ccc(Br)c(Cl)c2)CC(C)O1 (stereo not drawn) [Compound A0045] | 28.1 |
| CC1CCC(C(C)C)C(OCC(O)CN2CCN(CCc3ccccc3)CC2)C1 (stereo not drawn) [Compound A0020] | 37.8 |

Same assay, conditions: FLNA-binding compound 0.1 μM; 10 nM FITC-NLX

| Compound | Percent Binding Inhibition [%] |
| --- | --- |
| CC1CCC(C(C)C)C(OCC(O)CN2CC(C)OC(C)C2)C1 (stereo not drawn) [Compound A3333] | 48.5 |

Same assay, conditions: FLNA-binding compound 0.1 μM; 10 nM FITC-NLX; read-out: Percent Binding Inhibition

| Compound | inhibition at 0.1 µM [%] |
| --- | --- |
| Cc1cccc(OCC(O)CN2CC(C)OC(C)C2)c1 (stereo not drawn) [Compound A0030] | 44.4 |
| OC(COc1cccc(C(F)(F)F)c1)CN1CCc2ccccc2C1 (stereo not drawn) [Compound A0054] | 35.8 |
| COc1c2c(cc3c1C(CC(O)CCc1ccccc1)N(C)CC3)OCO2 (stereo not drawn) [Compound B0051] | 35.7 |
| CC1CCC(C(C)C)C(OCC(O)CN2CCCCC2=O)C1 (stereo not drawn) [Compound A0036] | 50.1 |
| CC1CN(CC(O)COc2ccc(Br)c(Cl)c2)CC(C)O1 (stereo not drawn) [Compound A0045] | 35 |
| CC1CCC(C(C)C)C(OCC(O)CN2CCN(CCc3ccccc3)CC2)C1 (stereo not drawn) [Compound A0020] | 38.8 |

Same assay, conditions: FLNA-binding compound 1 μM; 10 nM FITC-NLX

| Compound | Percent Binding Inhibition [%] |
| --- | --- |
| CC1CCC(C(C)C)C(OCC(O)CN2CC(C)OC(C)C2)C1 (stereo not drawn) [Compound A3333] | 54.2 |

Same assay, conditions: FLNA-binding compound 1 μM; 10 nM FITC-NLX; read-out: Percent Binding Inhibition

| Compound | inhibition at 1 µM [%] |
| --- | --- |
| Cc1cccc(OCC(O)CN2CC(C)OC(C)C2)c1 (stereo not drawn) [Compound A0030] | 48.9 |
| OC(COc1cccc(C(F)(F)F)c1)CN1CCc2ccccc2C1 (stereo not drawn) [Compound A0054] | 41.4 |
| COc1c2c(cc3c1C(CC(O)CCc1ccccc1)N(C)CC3)OCO2 (stereo not drawn) [Compound B0051] | 43.7 |
| CC1CCC(C(C)C)C(OCC(O)CN2CCCCC2=O)C1 (stereo not drawn) [Compound A0036] | 54.4 |
| CC1CN(CC(O)COc2ccc(Br)c(Cl)c2)CC(C)O1 (stereo not drawn) [Compound A0045] | 37.8 |
| CC1CCC(C(C)C)C(OCC(O)CN2CCN(CCc3ccccc3)CC2)C1 (stereo not drawn) [Compound A0020] | 45.8 |

Reference: patent US10363239B2, “Method for inhibiting growth of cancer cells” (Pain Therapeutics, Inc., priority 2013, dated 2019)
